{
  "source": "patent US8637263B1",
  "about": "“Assay for determination of compounds having anti-emetic activity” (Epiomed Therapeutics, Inc., priority 2010, dated 2014)",
  "tested_on": "xylazine-induced emesis",
  "experiment": "Xylazine-induced emesis in cats, with defensive behavior/anxiety scoring",
  "format": "in vivo",
  "conditions": "for anxiety 15 minutes after treatment / protection against xylazine-induced emesis / cats that vomited: FIG. 1, female cats; for protection against xylazine-induced emesis / cats that vomited: observed 30 min; for Defensive Behavior Scale / Mean Defensive Score / % Protection (vomiting) / Mean Latency (to retch/vomit): cats; for % Protection (vomiting) / Mean Latency (to retch/vomit): xylazine 0.66 mg/kg; for anxiety-inducing effect in test subjects / effectiveness in preventing chemically-induced emesis: administered alone, summary statement",
  "experimental": "[…], 0.66 mg/kg xylazine was administered subcutaneously, and the test subjects where then observed for 30 minutes.\nCats not susceptible to motion sickness were assigned to the xylazine testing group. Xylazine stimulates receptors on a pathway different from that used by motion sickness and thus served as a test of the generality of anti-emetic effects observed with motion testing.\nPrior to the evaluation of anti-emetic compounds, the production of an emetic response by xylazine in felines was confirmed in the laboratory. Cats were injected subcutaneously with either a freshly prepared solution of 0.66 mg/kg of xylazine in 0.9% sodium chloride or 0.9% sodium chloride vehicle, both adjusted to an injection volume of 0.1 ml/kg.\nOne week following the confirmation of an emetic response by the cats, subject cats were given either vehicle or test compound/composition in 0.9% sodium chloride or vehicle (injection volume of 0.1 ml/kg) subcutaneously, 20 minutes before administration of xylazine. […] Animals were scored using the vomit scale developed by Suri et al., 1979. Additional experiments were separated by at least a 1 week washout period.\nA. Vomit Scale Scoring: • 1. Sal I (licking—parasympathetic): 1 pt • 2. Sal II (drool, thin/frothy—early sympathetic): 2 pts • 3. Sal III (stringy saliva, dangles—sympathetic): 4 pts • 4. Defection: 8 pts • 5. Urination: 8 pts • 6. Wretch/vomiting: 16 pts\nB. Defensive Behavior Scale: • 1. No defensiveness: normal behavior; • 2. Slight defensiveness: retreating to the rear of the cage when approached and/or growling when being carried; • 3. […] Strong defensiveness: vigorous clawing and biting to prevent being handled. IV. Statistical Methods\nDose response curves were analyzed by Cochran's Q-test to establish significant effects. Paired comparisons were made using McNemar's test. Tests for line parallelism, relative potency and ED50 were based on least squares regression in a program for pharmacological statistics. The data from the nonparametric rating scale was analyzed using Friedman's analysis of variance model (ANOVA).",
  "key": {"[1]": {"conditions": "0.08 mg/kg SC 15 min before xylazine 0.66 mg/kg SC"}},
  "note": "Where a name gives a salt, the structure may show the parent alone.",
  "data": [
    {"smiles": "CCCN(CCC)C1CCc2cccc(O)c2C1", "note": "(racemic) [R/S-(+/−)-DPAT, (±)-8-Hydroxy-2-(dipropylamino)tetralin]", "values": [
      {"measurement": "anxiety 15 minutes after treatment", "setting": "0.16 mg/kg SC", "result": "moderate level of anxiety"},
      {"measurement": "protection against xylazine-induced emesis", "setting": "0.16 mg/kg SC 15 min before xylazine 0.66 mg/kg SC", "result": 100, "unit": "%"},
      {"measurement": "Defensive Behavior Scale", "setting": "0.16 mg/kg SC", "result": "Moderate"},
      {"measurement": "Mean Defensive Score", "setting": "0.16 mg/kg SC", "result": 2.0},
      {"measurement": "% Protection (vomiting)", "setting": "0.16 mg/kg SC", "result": 100.00, "unit": "%"}
    ]},
    {"smiles": "CCCN(CCC)[C@@H]1CCc2cccc(O)c2C1", "note": "[R-(+)-DPAT, R(+)-8-Hydroxy-2-(dipropylamino)tetralin hydrobromide]", "values": [
      {"measurement": "anxiety 15 minutes after treatment", "setting": "0.08 mg/kg SC", "result": "extreme level of anxiety"},
      {"measurement": "cats that vomited", "setting": "[1]", "result": "none of the cats vomited"},
      {"measurement": "anxiety-inducing effect in test subjects", "result": "moderate to strong"},
      {"measurement": "effectiveness in preventing chemically-induced emesis", "result": 100, "unit": "%"},
      {"measurement": "Defensive Behavior Scale", "setting": "0.02 mg/kg SC", "result": "Moderate"},
      {"measurement": "Mean Defensive Score", "setting": "0.02 mg/kg SC", "result": 2.0},
      {"measurement": "% Protection (vomiting)", "setting": "0.02 mg/kg SC", "result": 100.00, "unit": "%"},
      {"measurement": "Defensive Behavior Scale", "setting": "0.04 mg/kg SC", "result": "Strong"},
      {"measurement": "Mean Defensive Score", "setting": "0.04 mg/kg SC", "result": 3.0},
      {"measurement": "% Protection (vomiting)", "setting": "0.04 mg/kg SC", "result": 100.00, "unit": "%"},
      {"measurement": "Defensive Behavior Scale", "setting": "0.08 mg/kg SC", "result": "Strong"},
      {"measurement": "Mean Defensive Score", "setting": "0.08 mg/kg SC", "result": 3.0},
      {"measurement": "% Protection (vomiting)", "setting": "0.08 mg/kg SC", "result": 100.00, "unit": "%"}
    ]},
    {"smiles": "CCCN(CCC)[C@H]1CCc2cccc(O)c2C1", "note": "[S-(−)-DPAT, S(−)-8-Hydroxy-2-(dipropylamino)tetralin hydrobromide]", "values": [
      {"measurement": "anxiety 15 minutes after treatment", "setting": "0.08 mg/kg SC", "result": "did not show any anxiety"},
      {"measurement": "cats that vomited", "setting": "[1]", "result": 40, "unit": "%"},
      {"measurement": "protection against xylazine-induced emesis", "setting": "[1]", "result": 60, "unit": "%"},
      {"measurement": "anxiety-inducing effect in test subjects", "result": "no anxiety or only slight anxiety"},
      {"measurement": "effectiveness in preventing chemically-induced emesis", "result": "not fully effective"},
      {"measurement": "Defensive Behavior Scale", "setting": "0.08 mg/kg SC", "result": "None"},
      {"measurement": "% Protection (vomiting)", "setting": "0.08 mg/kg SC", "result": 75.00, "unit": "%"},
      {"measurement": "Mean Latency (to retch/vomit)", "setting": "0.08 mg/kg SC", "result": 1.58, "unit": "min"},
      {"measurement": "Defensive Behavior Scale", "setting": "0.16 mg/kg SC", "result": "None"},
      {"measurement": "% Protection (vomiting)", "setting": "0.16 mg/kg SC", "result": 85.71, "unit": "%"},
      {"measurement": "Mean Latency (to retch/vomit)", "setting": "0.16 mg/kg SC", "result": 0.82, "unit": "min"},
      {"measurement": "Defensive Behavior Scale", "setting": "0.32 mg/kg SC", "result": "Slight"},
      {"measurement": "Mean Defensive Score", "setting": "0.32 mg/kg SC", "result": 1.0},
      {"measurement": "% Protection (vomiting)", "setting": "0.32 mg/kg SC", "result": 80.00, "unit": "%"},
      {"measurement": "Mean Latency (to retch/vomit)", "setting": "0.32 mg/kg SC", "result": 1.00, "unit": "min"}
    ]}
  ]
}
